{"source": "patent US20180298024A1", "about": "“CORTISTATIN ANALOGS AND USES THEREOF” (President and Fellows of Harvard College, priority 2015, published 2018)", "key": {"[1]": {"system": "MKPL1", "test": "Half-maximal growth inhibition (GI50), MKPL1", "format": "cell-based", "settings": "Homo sapiens, 240 h, AML, M7, read-out: GI50 (nM), day 10", "procedure": "(§1) Compounds A, B, C, D, and F were tested against various cell lines to probe their broad utility against cancer. Cortistatin A (CA) was also tested against the cell lines in a head to head fashion."}, "[2]": {"system": "Human AML cell line MV4;11", "test": "MV4;11 disseminated leukemia model (bioluminescence)", "format": "in vivo, NSG mice", "settings": "each compound at its own dose/schedule; data from 3 separate studies", "procedure": "The in vivo anti-leukemic activity of Compounds A, B, C, D, and F was tested at the indicated doses and treatment schedules. The doses were chosen based on the compounds tolerability profile (i.e. CA was dosed at 0.16 mg/kg because higher doses caused weight loss or other tolerability issues outlined in Example 6). Human AML cell line MV4;11 expressing mCherry and luciferase were injected into NSG mice. Upon measurement of leukemia cell engraftment, treatment was initiated. Body weight and bioluminescence were measured. It has previously been shown (Shair, Nature 2015) that bioluminescence corresponds to leukemia burden. […] Moreover there was no appreciable advantage between IV or PO dosing observed."}, "[3]": {"system": "HEL", "test": "Half-maximal growth inhibition (GI50), HEL", "format": "cell-based", "settings": "Homo sapiens, 240 h, AML, erythroleukemia, JAK2V617F, read-out: GI50 (nM), day 10", "procedure": "as §1"}, "[4]": {"system": "OCI-AML2", "test": "Half-maximal growth inhibition (GI50), OCI-AML2", "format": "cell-based", "settings": "Homo sapiens, 240 h, AML, M4, DNMT3A R635W, read-out: GI50 (nM), day 10", "procedure": "as §1"}, "[5]": {"system": "K562", "test": "Half-maximal growth inhibition (GI50), K562", "format": "cell-based", "settings": "Homo sapiens, 240 h, CML, BCR-Abl, read-out: GI50 (nM), day 10", "procedure": "as §1"}, "[6]": {"test": "in vivo", "settings": "male, CD-1, mouse, ip, 0.16 mg/kg", "description": "Formulation correction for salt content was not required for this study. Materials were vortexed and sonicated at room temperature following addition of vehicle. The solutions were maintained at ambient temperature stirring in the dark for at least 30 minutes prior to dose administration. The formulations were then vortexed and sonicated briefly to help ensure solubility.\nMice were selected from the Testing Facility's rodent colony. The animals were enrolled in the study based on acceptable health as determined by Testing Facility personnel on the day of test article administration. Animals were held in environmental acclimation for at least 48 hours (±6 hours) prior to dosing. Animals were maintained at temperatures between 16-26° C. (62-78° F.) with the humidity range between 30-70%. Animals in all groups were fasted overnight and food was returned 4 hours following dosing. Water was provided ad libitum throughout the study.\nWhole blood samples for plasma were either collected from each animal by either direct vein puncture of the submandibular vein (survival blood collection) or by cardiac puncture following euthanasia with CO2 (terminal blood collection). […] Following collection, whole blood was placed into a tube containing K2EDTA and immediately placed on wet ice until processed for plasma. Whole blood samples were centrifuged at 2200×g for 10 minutes in a refrigerated centrifuge (5±3° C.) to isolate plasma. The samples were transferred to individual polypropylene containers and immediately placed on dry ice before storage at −70±10° C. until analysis. Plasma collected from undosed spare animals was pooled and analyzed as well.\nOnce collected the mouse plasma studies were quantitated using LCMS/MS spectroscopy to determine the concentration of compound. […] Eight calibration standards containing the analyte and internal standard imipramine were prepared and analyzed at the beginning and at the end of the sequence. A calibration curve was generated and sample concentrations calculated using the Quantitation software MassHunter."}, "[7]": {"system": "SKNO-1", "test": "Half-maximal growth inhibition (GI50), SKNO-1", "format": "cell-based", "settings": "Homo sapiens, 240 h, AML, M2, RUNX1-RUNX1T1, read-out: GI50 (nM), day 10", "procedure": "as §1"}, "[8]": {"system": "MOLM-14", "test": "Half-maximal growth inhibition (GI50), MOLM-14", "format": "cell-based", "settings": "Homo sapiens, 240 h, AML, M5, MLL-AF9, read-out: GI50 (nM), day 10", "procedure": "as §1"}, "[9]": {"system": "MV4; 11", "test": "Half-maximal growth inhibition (GI50), MV4; 11", "format": "cell-based", "settings": "Homo sapiens, 240 h, AML, M5, MLL-AF4, read-out: GI50 (nM), day 10", "procedure": "as §1"}, "[10]": {"molecular_target": "T1, Opiate μ(OP3, MOP) (Homo sapiens, UniProt P35372)", "T1 construct": "Eurofins Panlabs", "T1 sequence (P35372 whole entry)": "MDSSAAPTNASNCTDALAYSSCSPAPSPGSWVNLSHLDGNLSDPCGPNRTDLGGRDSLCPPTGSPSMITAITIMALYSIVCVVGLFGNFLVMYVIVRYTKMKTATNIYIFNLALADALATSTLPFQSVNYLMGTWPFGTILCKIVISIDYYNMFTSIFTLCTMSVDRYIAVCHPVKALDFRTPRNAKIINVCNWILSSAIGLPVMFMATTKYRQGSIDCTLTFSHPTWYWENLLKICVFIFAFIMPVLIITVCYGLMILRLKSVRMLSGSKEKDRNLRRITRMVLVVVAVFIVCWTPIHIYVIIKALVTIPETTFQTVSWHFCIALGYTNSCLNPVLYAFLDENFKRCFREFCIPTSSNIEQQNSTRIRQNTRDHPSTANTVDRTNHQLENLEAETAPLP", "test": "Panlab assay, Opiate μ(OP3, MOP)", "format": "binding", "procedure": "(§2) Compounds A, B, C, and D were tested in Panlab assays to evaluate potential off-target activity using standard assay kits. Methods employed in these studies have been adapted from the scientific literature to maximize reliability and reproducibility.\nIC50 values were determined by a non-linear, least squares regression analysis using MathIQ™ (ID Business Solutions Ltd., UK). […] Where presented, the Hill coefficient (nH), defining the slope of the competitive binding curve, was calculated using MathIQ™."}, "[11]": {"molecular_target": "T2, Adenosine Transporter (Cavia porcellus, UniProt H0V4R7)", "T2 sequence (H0V4R7 1-461)": "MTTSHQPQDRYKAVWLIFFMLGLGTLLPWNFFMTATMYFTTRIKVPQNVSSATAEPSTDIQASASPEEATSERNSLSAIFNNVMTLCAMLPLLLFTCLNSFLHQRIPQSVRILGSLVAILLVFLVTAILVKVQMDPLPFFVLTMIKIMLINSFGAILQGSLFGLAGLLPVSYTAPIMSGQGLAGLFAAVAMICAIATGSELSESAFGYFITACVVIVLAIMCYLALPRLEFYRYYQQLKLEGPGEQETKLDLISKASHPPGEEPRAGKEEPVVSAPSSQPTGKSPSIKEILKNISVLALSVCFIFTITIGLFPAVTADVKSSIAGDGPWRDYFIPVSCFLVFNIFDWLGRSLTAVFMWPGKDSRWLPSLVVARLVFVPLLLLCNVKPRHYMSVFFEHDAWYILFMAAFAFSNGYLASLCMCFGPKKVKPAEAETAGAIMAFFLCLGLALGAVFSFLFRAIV", "test": "Panlab assay, Adenosine Transporter", "format": "binding", "settings": "reference standard", "procedure": "as §2, with “reproducibility. Reference standards were run as an integral part of each assay to ensure the validity of the results obtained.” for “reproducibility.”\nIC50 values were determined by a non-linear, least squares regression analysis using MathIQ™ (ID Business Solutions Ltd., UK). Where inhibition constants (Ki) are presented, the Ki values were calculated using the equation of Cheng and Prusoff (Cheng, Y., Prusoff, W. H., Biochem. Pharmacol. 22:3099-3108, 1973) using the observed IC50 of the tested compound, the concentration of radioligand employed in the assay, and the historical values for the KD of the ligand (obtained experimentally at Eurofins Panlabs, Inc.). Where presented, the Hill coefficient (nH), defining the slope of the competitive binding curve, was calculated using MathIQ™."}}}
{"smiles": "CN(C)[C@H]1C[C@@]23CC[C@@]4(O2)C(=CC[C@]2(C)[C@@H](c5ccc6ccncc6c5)CC[C@H]24)C=C3[C@@H](O)[C@@H]1O", "note": "[Cortistatin A]", "values": [{"measurement": "GI50", "setting": "[1]", "value": "< 1", "unit": "nM"}, {"measurement": "Efficacy Rank Day 15", "setting": "[2]", "value": 4}, {"measurement": "GI50", "setting": "[3]", "value": "> 1000", "unit": "nM"}, {"measurement": "GI50", "setting": "[4]", "value": 1, "unit": "nM"}, {"measurement": "GI50", "setting": "[5]", "value": "> 1000", "unit": "nM"}, {"measurement": "AUC(0-inf)", "setting": "[6]", "value": 134, "unit": "ng·h/mL"}, {"measurement": "GI50", "setting": "[7]", "value": "< 1", "unit": "nM"}, {"measurement": "GI50", "setting": "[8]", "value": "< 1", "unit": "nM"}, {"measurement": "GI50", "setting": "[9]", "value": "< 1", "unit": "nM"}]}
{"smiles": "C[C@@H](NC(=O)[C@@H](N)Cc1ccc(O)cc1)C(=O)NCC(=O)N(C)[C@@H](Cc1ccccc1)C(=O)NCCO", "note": "[DAMGO, reference compound]", "values": [{"measurement": "nH (Hill coefficient), Opiate μ(OP3, MOP)", "setting": "[10]", "value": 0.75}]}
{"smiles": "O=[N+]([O-])c1ccc(CSc2ncnc3c2ncn3C2OC(CO)C(O)C2O)cc1", "note": "(stereo not drawn) [nitrobenzylthioinosine, Nitrobenzylthioinosine, reference compound]", "values": [{"measurement": "IC50", "setting": "[11]", "value": 0.35, "unit": "nM"}, {"measurement": "Ki", "setting": "[11]; Cheng and Prusoff", "value": 0.12, "unit": "nM"}]}
